Measurements: patent EP3597650B1, “ALDOSE REDUCTASE INHIBITORS AND USES THEREOF” (The Trustees of Columbia University in the City of New York, priority 2010, dated 2012)

What was measured:
[1] = molecular target: human recombinant aldose reductase (Homo sapiens, UniProt P15121); assay: biochemical
Experimental: The rcductasc activity of Compound A and zopolrestat were spectrophotometrically assayed by following the decrease of NADPH at 25°C for 4 min as described in Sato, S. (1992), "Rat kidney aldose reductase and aldehyde reductase and polyolproduction in rat kidney" Am. J. Physiol. 263, F799.F805, incorporated by reference herein in its entirety. [drawing 59]
Briefly, the reaction mixture (total volume 1 ml) contained 0.1 mM NADPH, 100 mM substrate (DL-glyceraldehyde or L-xylose) and human recombinant aldose reductase (100 mU) in 0.1 M phosphate buffer, pH 6.2. The head to head experiment was carried out in a microplate assay for AR inhibition using D-Glyceraldehyde and NADPH and the absorbance changes were monitored at 340nm and % inhibition was calculated for ARIs at concentrations ranging from 0.1 nM to 100 µM (Table 2 and Figure 2). Data is presented as mean ± standard deviation and is an average of 5 separate runs. The reaction was started by adding the substrate (glyceraldehyde or xylose) as well as the same reaction mixture in which the substrate replaced by deionized water was used as a control. One enzyme unit (U) was defined as the activity consuming 1 µmole of NADPH per min at 25 °C. Table 2. Aldose Reductase Activity for Zopolrestat and Compound A.

[2] = Solubility in water, LC-MS absorbance peak area at 254 nm; format: physicochemical; settings: for Area (Integration of Absorbance Peaks): water pH 7.1, ambient temperature, 254 nm
Experimental: Each sample of Compound A & zopolrestat were placed, separately, in water (MQW ultra nanopure) at ambient temperature and vortexed for 3 minutes. The aliquots were then filtered through a tightly-packed cotton plug (placed in a pipette) to remove any residual solids. The attempted concentrations of the respective solutions of Compound A and zopolrestat made were 0.05 mg/mL, 0.1 mg/mL, 0.5 mg/mL, 1.0 mg/mL, 5.0 mg/mL, and 10.0 mg/mL. The pH of the water used was 7.1 (measured electronically by an Orion perpHect LogR Meter Model # 370).
The filtered samples were run through a binary gradient (program: 5%-100% MeCN over 30 mins) on a LC-MS (Shimadzu LCMS-2010A Liquid Chromatography Mass Spectrometer, reverse-phase column). A 5 µL volume of each sample solution was injected for each run. Each trace contained a peak (for Compound A, TR approx. 14.070 mins; for zopolrestat, TR approx. 16.666 mins) measured at a wavelength of 254 nm for which the respective parent ion masses were observed.
By comparing the absorbance areas under the peaks corresponding to Compound A & zopolrestat in each water solution made (Table 1), a solubility curve for each compound was generated (Fig. 1). […] Table 1. Integration of Absorbance Peaks for Various Concentrations of Compounds.

isolated rat heart = assay: Ex vivo isovolumic isolated rat heart, ischemia reperfusion (I/R) injury; settings: 100 nM in perfusate; 20 min zero-flow ischemia, 60 min reperfusion
Experimental: Experiments were performed using an isovolumic isolated rat heart preparation as as described by Hwang YC, Sato S, Tsai JY, Yan S, Bakr S, Zhang H, Oates PJ , Ramasamy R (2002), "Aldose reductase activation is a key component of myocardial response to ischemia," Faseb J. 16, 243-245 and Ramasamy R, Hwang YC, Whang J , Bergmann SR (2001), "Protection of ischemic hearts by high glucose is mediated, in part, by GLUT-4," American Journal of Physiology. 281, H290-297.
Male Wistar rats (300.350 g, 3 to 4 months old) were anesthetized with a mixture of ketamine (80 mg/kg) and xylazine (10 mg/kg). After deep anesthesia was achieved, hearts were rapidly excised, placed into iced saline, and retrogradely perfused at 37 °C in a non-recirculating mode through the aorta at a rate of 12.5 ml/min. Hearts were perfused with modified Krebs-Henseleit buffer containing (in mM) NaCl 118, KCl 4.7, CaCl2 2.5, MgCl2 1.2, NaHCO3 25, glucose 5, palmitate 0.4, bovine serum albumin 0.4, and 70 mU/L insulin. […] Left ventricular developed pressure (LVDP) and left ventricular end diastolic pressure (LVEDP) were measured using a latex balloon in the left ventricle. LVDP, heart rate, and coronary perfusion pressure were monitored continuously on a ADI recorder. […]
Briefly, isolated perfused hearts were subjected to ischemia reperfusion (I/R) injury and the measures of cardiac injury and cardiac function monitored. […]

[3] = Solubility in Krebs-Henseleit buffer; format: physicochemical; settings: Krebs-Henseleit buffer with glucose, palmitate, bovine serum albumin, insulin
[4] = attempted concentration 0.05 mg/mL
[5] = attempted concentration 0.1 mg/mL
[6] = attempted concentration 0.5 mg/mL
[7] = attempted concentration 1 mg/mL
[8] = attempted concentration 5 mg/mL
[9] = attempted concentration 10 mg/mL

| Structure (SMILES) | inhibition at 0.0001 µM [1] [%] | inhibition at 0.001 µM [1] [%] | inhibition at 0.01 µM [1] [%] | inhibition at 0.1 µM [1] [%] | inhibition at 1 µM [1] [%] | inhibition at 10 µM [1] [%] | inhibition at 100 µM [1] [%] | more active than zopolrestat in vitro against aldose reductase ([1]; fold relative to zopolrestat) | solubility in pH 7.1 water relative to Zopolrestat ([2]; ambient temperature, all concentrations) | Area (Integration of Absorbance Peaks) [2, 4] | Area (Integration of Absorbance Peaks) [2, 5] | Area (Integration of Absorbance Peaks) [2, 6] | Area (Integration of Absorbance Peaks) [2, 7] | Area (Integration of Absorbance Peaks) [2, 8] | Area (Integration of Absorbance Peaks) [2, 9] | CK Release (isolated rat heart) | LVDP Recovery (isolated rat heart) | solubility in Krebs-Henseleit buffer [3] |
| --- | --- | --- | --- | --- | --- | --- | --- | --- | --- | --- | --- | --- | --- | --- | --- | --- | --- | --- |
| O=C(O)Cc1nn(Cc2nc3cc(C(F)(F)F)ccc3s2)c(=O)c2nccnc12 [Compound A, 2-(8-oxo-7-((5-(trifluoromethyl)benzo[d]thiazol-2-yl)methyl)-7,8-dihydropyrazino[2,3-d]pyridazin-5-yl)acetic acid] | 69 ± 1.3 | 79.6 ± 2.4 | 80 ± 1.8 | 89.2 ± 0.7 | 93.6 ± 2.8 | 95.3 ± 1.1 | 96.2 ± 3.3 | approximately 100 x | significantly greater solubility | 1811131 | 3221003 | 5814304 | 10515430 | 17216187 | 20397336 | Compound A treated Rat hearts = 425±63 IU/g wet weight | Compound A Treated Rat Hearts = 76±5 % of pre-ischemic values | soluble without ay precipitation or turbidity |
| O=C(O)Cc1nn(Cc2nc3cc(C(F)(F)F)ccc3s2)c(=O)c2ccccc12 [zopolrestat, reference compound] | 31.7 ± 5.1 | 39.3 ± 4.3 | 52.2 ± 1.9 | 76.7 ± 2.7 | 86.3 ± 3.6 | 90.1 ± 3.4 | 93.2 ± 3.8 | – | – | 1039247 | 1899466 | 4304556 | 6129559 | 13314544 | 13362465 | – | – | heat was applied to render zopolrestat soluble |
